Experimental data: patent publication US9980943B2, “Methods of treating muscular dystrophy” (BOARD OF REGENTS OF THE NEVADA SYSTEM OF HIGHER EDUCATION, …, priority 2013, dated 2018)

Experiments:
Assay type in all cases: cell-based, mouse
[1] = system: α7 integrin (LacZ reporter in α7βgal+/− myoblasts); assay: Myoblast α7+/LacZ integrin FDG assay (Burkin assay in myoblasts, 96-well); settings: 96-well; for Burkin Assay in Myoblasts, signal relative to DMSO: α7+/LacZ myoblasts; for Burkin Assay in Myoblasts, value relative to DMSO: SU9516 analogs, N=3-6
[2] = system: α7 integrin (LacZ reporter in α7+/LacZ myotubes); assay: Myotube α7 integrin FDG assay (Burkin assay in myotubes, 96-well); settings: for Burkin Assay in Myotubes, value relative to DMSO: SU9516 analogs, 96-well, N=3-6
[3] = system: β-galactosidase in CMV-LacZ C2C12 myoblasts; assay: CMV-LacZ secondary screen in C2C12 myoblasts (β-Gal stabilizing assay); settings: for CMV-LACZ in Myoblasts (β-galactosidase activity relative to DMSO): CMV-LacZ C2C12 myoblasts; for CMV-LACZ in Myoblasts, value relative to DMSO: SU9516 analogs, C2C12 CMV-LacZ, N=2
Summary of the method: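 β-Gal level was the read-out, measured in a clonal C2C12 line expressing LacZ from a CMV promoter. Dose-response curves used six concentrations, 0.5 μM up to 40 μM, with duplicate points.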

[4] = system: β-galactosidase in CMV-LacZ C2C12 myotubes; assay: CMV-LacZ secondary screen in C2C12 myotubes (β-Gal stabilizing assay); settings: for CMV-LACZ in Myotubes, signal relative to DMSO: C2C12 CMV-LacZ myotubes, fold relative to DMSO; for CMV-LACZ in Myotubes, value relative to DMSO: SU9516 analogs, C2C12 CMV-LacZ, N=2
Summary of the method: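 β-gal stabilization was measured in C2C12 myoblasts or myotubes stably transfected with a CMV-driven LacZ construct, using the FDG β-gal assay. Compounds were tested in dose-response at 0.5, 1, 5, 10, 20 and 40 μM, with two replicates per point.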

## CCOC(=O)c1cc(C(=O)OCC)c(=O)[nH]c1SCc1ccccc1 [MLS001008109-01]
[1]; 0.5 uM
  Burkin Assay in Myoblasts, signal relative to DMSO: 0.8481
[1]; 1 uM
  Burkin Assay in Myoblasts, signal relative to DMSO: 0.78
[1]; 5 uM
  Burkin Assay in Myoblasts, signal relative to DMSO: 1.002
[1]; 10 uM
  Burkin Assay in Myoblasts, signal relative to DMSO: 0.8626
[1]; 20 uM
  Burkin Assay in Myoblasts, signal relative to DMSO: 0.826
[1]; 40 uM
  Burkin Assay in Myoblasts, signal relative to DMSO: 0.8306
[2]; 0.5 uM
  Burkin Assay in Myotubes, α7 integrin LacZ reporter signal relative to DMSO: 0.9247
[2]; 1 uM
  Burkin Assay in Myotubes, α7 integrin LacZ reporter signal relative to DMSO: 0.9146
[2]; 5 uM
  Burkin Assay in Myotubes, α7 integrin LacZ reporter signal relative to DMSO: 1.182
[2]; 10 uM
  Burkin Assay in Myotubes, α7 integrin LacZ reporter signal relative to DMSO: 0.9335
[2]; 20 uM
  Burkin Assay in Myotubes, α7 integrin LacZ reporter signal relative to DMSO: 0.8264
[2]; 40 uM
  Burkin Assay in Myotubes, α7 integrin LacZ reporter signal relative to DMSO: 0.6103
[3]; 0.5 uM
  CMV-LACZ in Myoblasts (β-galactosidase activity relative to DMSO): 0.9542
[3]; 1 uM
  CMV-LACZ in Myoblasts (β-galactosidase activity relative to DMSO): 1.1138
[3]; 5 uM
  CMV-LACZ in Myoblasts (β-galactosidase activity relative to DMSO): 0.9228
[3]; 10 uM
  CMV-LACZ in Myoblasts (β-galactosidase activity relative to DMSO): 1.2178
[3]; 20 uM
  CMV-LACZ in Myoblasts (β-galactosidase activity relative to DMSO): 0.8730
[3]; 40 uM
  CMV-LACZ in Myoblasts (β-galactosidase activity relative to DMSO): 0.7619
[4]; 0.5 uM
  CMV-LACZ in Myotubes, signal relative to DMSO: 1.0621
[4]; 1 uM
  CMV-LACZ in Myotubes, signal relative to DMSO: 1.0168
[4]; 5 uM
  CMV-LACZ in Myotubes, signal relative to DMSO: 0.9839
[4]; 10 uM
  CMV-LACZ in Myotubes, signal relative to DMSO: 0.9289
[4]; 20 uM
  CMV-LACZ in Myotubes, signal relative to DMSO: 1.0756
[4]; 40 uM
  CMV-LACZ in Myotubes, signal relative to DMSO: 1.0600

## CCOc1ccc2nc(Cl)sc2c1 [MLS000678673-01]
[1]; 0.5 uM
  Burkin Assay in Myoblasts, signal relative to DMSO: 0.9325
[1]; 1 uM
  Burkin Assay in Myoblasts, signal relative to DMSO: 1.054
[1]; 5 uM
  Burkin Assay in Myoblasts, signal relative to DMSO: 1.044
[1]; 10 uM
  Burkin Assay in Myoblasts, signal relative to DMSO: 0.9687
[1]; 20 uM
  Burkin Assay in Myoblasts, signal relative to DMSO: 1.173
[1]; 40 uM
  Burkin Assay in Myoblasts, signal relative to DMSO: 1.134
[2]; 0.5 uM
  Burkin Assay in Myotubes, α7 integrin LacZ reporter signal relative to DMSO: 0.9772
[2]; 1 uM
  Burkin Assay in Myotubes, α7 integrin LacZ reporter signal relative to DMSO: 0.9802
[2]; 5 uM
  Burkin Assay in Myotubes, α7 integrin LacZ reporter signal relative to DMSO: 0.9767
[2]; 10 uM
  Burkin Assay in Myotubes, α7 integrin LacZ reporter signal relative to DMSO: 0.9606
[2]; 20 uM
  Burkin Assay in Myotubes, α7 integrin LacZ reporter signal relative to DMSO: 0.8655
[2]; 40 uM
  Burkin Assay in Myotubes, α7 integrin LacZ reporter signal relative to DMSO: 0.781
[3]; 0.5 uM
  CMV-LACZ in Myoblasts (β-galactosidase activity relative to DMSO): 1.2106
[3]; 1 uM
  CMV-LACZ in Myoblasts (β-galactosidase activity relative to DMSO): 1.1914
[3]; 5 uM
  CMV-LACZ in Myoblasts (β-galactosidase activity relative to DMSO): 1.0561
[3]; 10 uM
  CMV-LACZ in Myoblasts (β-galactosidase activity relative to DMSO): 0.8991
[3]; 20 uM
  CMV-LACZ in Myoblasts (β-galactosidase activity relative to DMSO): 0.8674
[3]; 40 uM
  CMV-LACZ in Myoblasts (β-galactosidase activity relative to DMSO): 0.9656
[4]; 0.5 uM
  CMV-LACZ in Myotubes, signal relative to DMSO: 1.1229
[4]; 1 uM
  CMV-LACZ in Myotubes, signal relative to DMSO: 1.0286
[4]; 5 uM
  CMV-LACZ in Myotubes, signal relative to DMSO: 0.7918
[4]; 10 uM
  CMV-LACZ in Myotubes, signal relative to DMSO: 0.9367
[4]; 20 uM
  CMV-LACZ in Myotubes, signal relative to DMSO: 0.9635
[4]; 40 uM
  CMV-LACZ in Myotubes, signal relative to DMSO: 1.1835

## Cc1ncc(/C=C2\C(=O)Nc3ccccc32)[nH]1 [MLS000834757-01]
[1]; 0.5 uM
  Burkin Assay in Myoblasts, value relative to DMSO: 1.0102
[1]; 1 uM
  Burkin Assay in Myoblasts, value relative to DMSO: 1.003
[1]; 5 uM
  Burkin Assay in Myoblasts, value relative to DMSO: 1.125
[1]; 10 uM
  Burkin Assay in Myoblasts, value relative to DMSO: 0.9651
[1]; 20 uM
  Burkin Assay in Myoblasts, value relative to DMSO: 1.117
[1]; 40 uM
  Burkin Assay in Myoblasts, value relative to DMSO: 1.021
[2]; 0.5 uM
  Burkin Assay in Myotubes, value relative to DMSO: 1.019
[2]; 1 uM
  Burkin Assay in Myotubes, value relative to DMSO: 0.943
[2]; 5 uM
  Burkin Assay in Myotubes, value relative to DMSO: 1.03
[2]; 10 uM
  Burkin Assay in Myotubes, value relative to DMSO: 0.9537
[2]; 20 uM
  Burkin Assay in Myotubes, value relative to DMSO: 0.9989
[2]; 40 uM
  Burkin Assay in Myotubes, value relative to DMSO: 0.9464
[3]; 0.5 uM
  CMV-LACZ in Myoblasts, value relative to DMSO: 1.0367
[3]; 1 uM
  CMV-LACZ in Myoblasts, value relative to DMSO: 0.9300
[3]; 5 uM
  CMV-LACZ in Myoblasts, value relative to DMSO: 0.9101
[3]; 10 uM
  CMV-LACZ in Myoblasts, value relative to DMSO: 1.0942
[3]; 20 uM
  CMV-LACZ in Myoblasts, value relative to DMSO: 0.8115
[3]; 40 uM
  CMV-LACZ in Myoblasts, value relative to DMSO: 1.1026
[4]; 0.5 uM
  CMV-LACZ in Myotubes, value relative to DMSO: 1.0238
[4]; 1 uM
  CMV-LACZ in Myotubes, value relative to DMSO: 0.8695
[4]; 5 uM
  CMV-LACZ in Myotubes, value relative to DMSO: 1.0546
[4]; 10 uM
  CMV-LACZ in Myotubes, value relative to DMSO: 1.1047
[4]; 20 uM
  CMV-LACZ in Myotubes, value relative to DMSO: 1.0789
[4]; 40 uM
  CMV-LACZ in Myotubes, value relative to DMSO: 1.3600
